{"source": "patent US20140322315A1", "about": "“CYSTEAMINE AND/OR CYSTAMINE FOR TREATING ISCHEMIC INJURY” (The Regents of the University of California, priority 2011, published 2014)", "key": {"adiponectin multimers [1]": {"molecular_target": "T1, adiponectin multimers (Homo sapiens, UniProt Q15848)", "T1 construct": "from tissue; host or cells: human serum (pretreatment NAFLD subjects; adults without NAFLD)", "T1 sequence (Q15848 19-244)": "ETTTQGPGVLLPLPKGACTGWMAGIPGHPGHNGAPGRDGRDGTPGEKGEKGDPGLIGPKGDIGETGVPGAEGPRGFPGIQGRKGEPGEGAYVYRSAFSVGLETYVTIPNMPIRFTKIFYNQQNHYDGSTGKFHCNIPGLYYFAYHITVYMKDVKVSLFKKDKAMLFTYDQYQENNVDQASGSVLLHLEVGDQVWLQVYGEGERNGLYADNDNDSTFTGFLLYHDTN", "assay": "Dose response profile: NAFLD serum incubated with varying cysteamine concentrations, adiponectin multimers", "assay_type": "biochemical", "conditions": "1 hour at 37° C.", "procedure": "Total and multimeric adiponectin levels were measured in serum taken from: (1) subject with NAFLD collected at 0 and 24 wks of cysteamine therapy and again 16 wks after stopping therapy (i.e., 40 weeks); (2) pretreated 0-week subjects with NAFLD and adults without NAFLD at room temperature and at 37° C. and also after incubation with cysteamine 90 μM for 1 hour at 37° C.; and (3) pretreated 0-week subjects with NAFLD before and after incubation with cysteamine at varying concentrations (15, 30, 45, 60, 90, 120 μM) for 1 hour at 37° C. to establish dose-response profile.\nSodium dodecyl sulfate polyacrylamide gel electrophoresis (SDS-PAGE) was performed according to standard Laemmli's method. Sample buffer for non-reducing, non-heat denaturing conditions contained 3% SDS; 50 mmol/1 Tris-HCL, pH 6.8 and 20% glycerol. Proteins were separated using 3-8% Tris-Acetate Gels (Invitrogen, Carlsbad Calif.) with Tris-Acetate running buffer per manufacturer instructions. For immunoblotting, proteins were transferred to nitrocellulose membranes. Membranes were washed with Tween (Tris-buffered Saline, 0.1% […]) and incubated with monoclonal antibody (1:500 BD Transduction Laboratories, San Diego, Calif.). After washing with Tris-buffered saline with 0.1% Tween (4×5 min) membranes were incubated with L-COR secondary antibodies (LI-COR Biotechnology, Lincoln Nebr.) at 1:20,000. Adiponectin multimers were detected and quantified using the LICOR imager and software analysis program. Relative distribution of adiponectin multimers was determined by dividing band density by total density (cellular adiponectin) or by total adiponectin as determined by ELISA (Millipore, Billerica, Mass.). The percentage of adionectin multimer was then multiplied by the total adiponectin level to calculate absolute oligomer value."}, "[2]": {"set-up": "species or system mice (C57BL/6)", "conditions": "mouse, in vivo"}, "[3]": {"system": "LAD artery ligation ischemia/reperfusion", "assay": "Myocardial ischemia/reperfusion (LAD artery ligation) in mice: infarct area, echocardiography", "assay_type": "in vivo, mice (C57BL/6)", "set-up": "IA (Ischemic Area): unit not given beside the values", "procedure": "To analyze ischemic damage and treatment with cysteamine a study in mice (C57BL/6-Male-12 weeks, 25 g) that are either pre-treated or naïve to cysteamine bitartrate was performed as follows.\nPre-treated animals received intra-peritoneal cysteamine, 60 mg/kg twice (120 mg/kg/day) 2 hours before surgery for LAD artery ligation. Following a 60 minute ligation period the obstruction was removed and another dose of cysteamine was given immediately at the time of reperfusion and also twice daily injections for 4 days following reperfusion. A control group received the same volumes of control IV solution injected instead of cysteamine. Acceptable volumes of blood were collected at baseline, and at predetermined time points after the ischemic insult in order to determine levels of surrogate markers of inflammation and plasma cysteamine. […] Before sacrifice, the LAD was re-occluded and Evan's Blue was injected through JVC in order to delineate the non-ischemic area. […] Echocardiography provided ventricular volume data as well as wall function. Hemodynamic studies provided muscle contractility data (specifically systolic data).\nSo far seven mice were studied. Four received control solution and 3 received cysteamine. […] This is a reduction of 13%."}, "adiponectin multimers [4]": {"molecular_target": "T1, adiponectin multimers", "assay": "Gastric Banding (GB) serum incubated with cysteamine, adiponectin multimers by western blot", "assay_type": "biochemical", "conditions": "37° C. + 45 μM cysteamine, 1 hr", "procedure": "In another experiment, 25 μl total sample volume (5 μl diluted serum+15 μl water+5 μl 5×LB) was incubated with or without cysteamine at 37° C.×1 hr. A control was prepared without cysteamine and incubated at room temperature for 1 hour on the bench. The preparations were then run on 2×15-well 1.5 mm 3-8% Tris-acetate gels. Primary antibody—mouse anti-adiponectin 1:500, overnight at 4° C. and secondary antibody—goat anti-mouse IR800 1:20,000.\nTo determine threshold dose of cysteamine on reduction of serum adiponectin multimers, serum was collected and incubated with various concentrations of cysteamine. Six microliters of diluted GB serum was incubated with 24 μl water and various concentrations of cysteamine. Samples, were incubate in a tissue culture incubator for 1 hr at 37° C. with a control tube having no cysteamine addition. To each tube was then added 5 μl of 5× non-reducing loading buffer. The samples were vortexed and loaded on a 3-8% tris-Acetate gel and run for 75 min at 125 V constant current. The gel was transferred and blocked. The blot was then incubated overnight with anti-adiponectin antibody 1:500 in 3% BSA/TBS. The blot was washed and incubated with a secondary anti-mouse antibody for 1 hour. Densitometry was performed on a LICOR densitometer."}, "circulating leukocytes": {"system": "circulating leukocytes", "conditions": "Dohil et al., J. Pediatr 2006; cited from earlier work"}}, "note": "Values joined by “and” are separate entries in the source; they are usually repeats but may differ in a detail not shown here. Equal entries are not always repeated. “Also recorded” adds a separate entry of the source."}
{"smiles": "NCCS", "note": "[cysteamine, Cysteamine]", "values": [{"measurement": "HMW level vs baseline", "setting": "adiponectin multimers [1]; 120 μM cysteamine", "result": "reductions"}, {"measurement": "MMW level vs baseline", "setting": "adiponectin multimers [1]; 120 μM cysteamine", "result": "reductions"}, {"measurement": "greatest percent increase in LMW", "setting": "adiponectin multimers [1]; 120 μM cysteamine", "result": 77, "unit": "%"}, {"measurement": "MMW levels vs baseline", "setting": "adiponectin multimers [1]; all cysteamine concentrations (15-120 μM)", "result": "lower than baseline"}, {"measurement": "mean LMW level increase above baseline", "setting": "adiponectin multimers [1]; all cysteamine concentrations used (15-120 μM)", "result": "> 60", "unit": "%"}, {"measurement": "HMW level increase above baseline", "setting": "adiponectin multimers [1]; cysteamine 15, 30, 45, and 60 μM", "result": "about 10%"}, {"measurement": "body weight reduction", "setting": "[2]", "result": 14, "unit": "%"}, {"measurement": "mean terminal weight", "setting": "[2]", "result": 18.3, "unit": "g"}, {"measurement": "IA (Ischemic Area)", "setting": "[3]; MEAN of 3 mice", "result": 7.99}, {"measurement": "IA/LV (cysteamine) (%)", "setting": "[3]; MEAN of 3 mice, control 17.66%", "result": 8.12, "unit": "%"}, {"measurement": "IA/AAR (cysteamine) (%)", "setting": "[3]; MEAN of 3 mice, control 58.57%", "result": 33.24, "unit": "%"}, {"measurement": "mean end diastolic volume (EDV), 24 h vs 72 h", "setting": "[3]; cysteamine group, p=0.032", "result": "significant difference; also recorded: significant reduction"}, {"measurement": "relative amounts of ischemic damage compared with control groups", "setting": "[3]; cysteamine treated vs control", "result": "about half"}, {"measurement": "IA/AAR (cysteamine) (%)", "setting": "[3]; individual mice (raw data)", "result": "38.02% and 34.78% and 26.92%"}, {"measurement": "IA/LV (cysteamine) (%)", "setting": "[3]; individual mice (raw data)", "result": "12.66% and 6.24% and 5.47%"}, {"measurement": "IA (Ischemic Area)", "setting": "[3]; individual mice (raw data), cysteamine 60 mg/kg twice daily", "result": "9.37 and 11.14 and 3.46"}, {"measurement": "IA/AAR ratio, cysteamine vs control group", "setting": "[3]; p=0.004", "result": "significant reduction; also recorded: significant difference"}, {"measurement": "IA/LV ratio, cysteamine vs control group", "setting": "[3]; p=0.008", "result": "significant reduction; also recorded: significant difference"}, {"measurement": "percentage change in ESV between 24 h and 72 h, vs control group", "setting": "[3]; p=0.039", "result": "significantly greater percentage reduction"}, {"measurement": "percentage change in EDV between 24 h and 72 h, vs control group", "setting": "[3]; p=0.04", "result": "significantly greater percentage reduction; also recorded: significant difference"}, {"measurement": "HMW adiponectin change", "setting": "adiponectin multimers [4]; p=0.009", "result": "significantly decrease"}, {"measurement": "LMW adiponectin change", "setting": "adiponectin multimers [4]; p=0.05", "result": "significantly increase"}, {"measurement": "intracellular cystine levels in circulating leukocytes", "setting": "circulating leukocytes", "result": "lowering"}]}
